According to PMC8689225, “Cardiac ryanodine receptor N-terminal region biosensors identify novel inhibitors via FRET-based high-throughput screening” (The Journal of Biological Chemistry, 2021):
Like-named read-outs stand apart in the source and are kept apart here.

Assays:
[1] = system: rat skeletal muscle fibers; experiment: Electrically evoked Ca2+ transients in skinned skeletal muscle fibers; type: cell-based; conditions: 10 μM FA or 1 mM tetracaine, 1 Hz
Text: Mechanically skinned fibers were isolated, mounted in a custom chamber, and bathed in a resting physiological solution containing rhod-2, as previously described ([21]). The Ca^2+-sensitive dye rhod-2 was used to track cytosolic Ca^2+ transients when exposed to electrical stimulation. Field pulses at 1 Hz frequency and 4 ms in duration were applied across platinum electrodes parallel to the long axis of the fiber. Imaging for electrical stimulation experiments was in xt mode, at a rate of 2 ms.line^−1. DMSO vehicle (0.01%), FA (10 μM), and tetracaine were added to the physiological solution. Each treatment was applied precisely at the seventh successive Ca^2+ transient.

RyR1 [2] = biological target: T1, RyR1 (Sus scrofa, UniProt P16960); experiment: [3H]ryanodine binding to skeletal SR (HSR) vesicles; type: biochemical, pig; conditions: for EC50: Table S4, read-out: EC50, [3H]ryanodine binding, skeletal HSR
T1 construct: from tissue; host or cells: porcine longissimus dorsi muscle, heavy SR vesicles
T1 sequence (P16960 whole entry): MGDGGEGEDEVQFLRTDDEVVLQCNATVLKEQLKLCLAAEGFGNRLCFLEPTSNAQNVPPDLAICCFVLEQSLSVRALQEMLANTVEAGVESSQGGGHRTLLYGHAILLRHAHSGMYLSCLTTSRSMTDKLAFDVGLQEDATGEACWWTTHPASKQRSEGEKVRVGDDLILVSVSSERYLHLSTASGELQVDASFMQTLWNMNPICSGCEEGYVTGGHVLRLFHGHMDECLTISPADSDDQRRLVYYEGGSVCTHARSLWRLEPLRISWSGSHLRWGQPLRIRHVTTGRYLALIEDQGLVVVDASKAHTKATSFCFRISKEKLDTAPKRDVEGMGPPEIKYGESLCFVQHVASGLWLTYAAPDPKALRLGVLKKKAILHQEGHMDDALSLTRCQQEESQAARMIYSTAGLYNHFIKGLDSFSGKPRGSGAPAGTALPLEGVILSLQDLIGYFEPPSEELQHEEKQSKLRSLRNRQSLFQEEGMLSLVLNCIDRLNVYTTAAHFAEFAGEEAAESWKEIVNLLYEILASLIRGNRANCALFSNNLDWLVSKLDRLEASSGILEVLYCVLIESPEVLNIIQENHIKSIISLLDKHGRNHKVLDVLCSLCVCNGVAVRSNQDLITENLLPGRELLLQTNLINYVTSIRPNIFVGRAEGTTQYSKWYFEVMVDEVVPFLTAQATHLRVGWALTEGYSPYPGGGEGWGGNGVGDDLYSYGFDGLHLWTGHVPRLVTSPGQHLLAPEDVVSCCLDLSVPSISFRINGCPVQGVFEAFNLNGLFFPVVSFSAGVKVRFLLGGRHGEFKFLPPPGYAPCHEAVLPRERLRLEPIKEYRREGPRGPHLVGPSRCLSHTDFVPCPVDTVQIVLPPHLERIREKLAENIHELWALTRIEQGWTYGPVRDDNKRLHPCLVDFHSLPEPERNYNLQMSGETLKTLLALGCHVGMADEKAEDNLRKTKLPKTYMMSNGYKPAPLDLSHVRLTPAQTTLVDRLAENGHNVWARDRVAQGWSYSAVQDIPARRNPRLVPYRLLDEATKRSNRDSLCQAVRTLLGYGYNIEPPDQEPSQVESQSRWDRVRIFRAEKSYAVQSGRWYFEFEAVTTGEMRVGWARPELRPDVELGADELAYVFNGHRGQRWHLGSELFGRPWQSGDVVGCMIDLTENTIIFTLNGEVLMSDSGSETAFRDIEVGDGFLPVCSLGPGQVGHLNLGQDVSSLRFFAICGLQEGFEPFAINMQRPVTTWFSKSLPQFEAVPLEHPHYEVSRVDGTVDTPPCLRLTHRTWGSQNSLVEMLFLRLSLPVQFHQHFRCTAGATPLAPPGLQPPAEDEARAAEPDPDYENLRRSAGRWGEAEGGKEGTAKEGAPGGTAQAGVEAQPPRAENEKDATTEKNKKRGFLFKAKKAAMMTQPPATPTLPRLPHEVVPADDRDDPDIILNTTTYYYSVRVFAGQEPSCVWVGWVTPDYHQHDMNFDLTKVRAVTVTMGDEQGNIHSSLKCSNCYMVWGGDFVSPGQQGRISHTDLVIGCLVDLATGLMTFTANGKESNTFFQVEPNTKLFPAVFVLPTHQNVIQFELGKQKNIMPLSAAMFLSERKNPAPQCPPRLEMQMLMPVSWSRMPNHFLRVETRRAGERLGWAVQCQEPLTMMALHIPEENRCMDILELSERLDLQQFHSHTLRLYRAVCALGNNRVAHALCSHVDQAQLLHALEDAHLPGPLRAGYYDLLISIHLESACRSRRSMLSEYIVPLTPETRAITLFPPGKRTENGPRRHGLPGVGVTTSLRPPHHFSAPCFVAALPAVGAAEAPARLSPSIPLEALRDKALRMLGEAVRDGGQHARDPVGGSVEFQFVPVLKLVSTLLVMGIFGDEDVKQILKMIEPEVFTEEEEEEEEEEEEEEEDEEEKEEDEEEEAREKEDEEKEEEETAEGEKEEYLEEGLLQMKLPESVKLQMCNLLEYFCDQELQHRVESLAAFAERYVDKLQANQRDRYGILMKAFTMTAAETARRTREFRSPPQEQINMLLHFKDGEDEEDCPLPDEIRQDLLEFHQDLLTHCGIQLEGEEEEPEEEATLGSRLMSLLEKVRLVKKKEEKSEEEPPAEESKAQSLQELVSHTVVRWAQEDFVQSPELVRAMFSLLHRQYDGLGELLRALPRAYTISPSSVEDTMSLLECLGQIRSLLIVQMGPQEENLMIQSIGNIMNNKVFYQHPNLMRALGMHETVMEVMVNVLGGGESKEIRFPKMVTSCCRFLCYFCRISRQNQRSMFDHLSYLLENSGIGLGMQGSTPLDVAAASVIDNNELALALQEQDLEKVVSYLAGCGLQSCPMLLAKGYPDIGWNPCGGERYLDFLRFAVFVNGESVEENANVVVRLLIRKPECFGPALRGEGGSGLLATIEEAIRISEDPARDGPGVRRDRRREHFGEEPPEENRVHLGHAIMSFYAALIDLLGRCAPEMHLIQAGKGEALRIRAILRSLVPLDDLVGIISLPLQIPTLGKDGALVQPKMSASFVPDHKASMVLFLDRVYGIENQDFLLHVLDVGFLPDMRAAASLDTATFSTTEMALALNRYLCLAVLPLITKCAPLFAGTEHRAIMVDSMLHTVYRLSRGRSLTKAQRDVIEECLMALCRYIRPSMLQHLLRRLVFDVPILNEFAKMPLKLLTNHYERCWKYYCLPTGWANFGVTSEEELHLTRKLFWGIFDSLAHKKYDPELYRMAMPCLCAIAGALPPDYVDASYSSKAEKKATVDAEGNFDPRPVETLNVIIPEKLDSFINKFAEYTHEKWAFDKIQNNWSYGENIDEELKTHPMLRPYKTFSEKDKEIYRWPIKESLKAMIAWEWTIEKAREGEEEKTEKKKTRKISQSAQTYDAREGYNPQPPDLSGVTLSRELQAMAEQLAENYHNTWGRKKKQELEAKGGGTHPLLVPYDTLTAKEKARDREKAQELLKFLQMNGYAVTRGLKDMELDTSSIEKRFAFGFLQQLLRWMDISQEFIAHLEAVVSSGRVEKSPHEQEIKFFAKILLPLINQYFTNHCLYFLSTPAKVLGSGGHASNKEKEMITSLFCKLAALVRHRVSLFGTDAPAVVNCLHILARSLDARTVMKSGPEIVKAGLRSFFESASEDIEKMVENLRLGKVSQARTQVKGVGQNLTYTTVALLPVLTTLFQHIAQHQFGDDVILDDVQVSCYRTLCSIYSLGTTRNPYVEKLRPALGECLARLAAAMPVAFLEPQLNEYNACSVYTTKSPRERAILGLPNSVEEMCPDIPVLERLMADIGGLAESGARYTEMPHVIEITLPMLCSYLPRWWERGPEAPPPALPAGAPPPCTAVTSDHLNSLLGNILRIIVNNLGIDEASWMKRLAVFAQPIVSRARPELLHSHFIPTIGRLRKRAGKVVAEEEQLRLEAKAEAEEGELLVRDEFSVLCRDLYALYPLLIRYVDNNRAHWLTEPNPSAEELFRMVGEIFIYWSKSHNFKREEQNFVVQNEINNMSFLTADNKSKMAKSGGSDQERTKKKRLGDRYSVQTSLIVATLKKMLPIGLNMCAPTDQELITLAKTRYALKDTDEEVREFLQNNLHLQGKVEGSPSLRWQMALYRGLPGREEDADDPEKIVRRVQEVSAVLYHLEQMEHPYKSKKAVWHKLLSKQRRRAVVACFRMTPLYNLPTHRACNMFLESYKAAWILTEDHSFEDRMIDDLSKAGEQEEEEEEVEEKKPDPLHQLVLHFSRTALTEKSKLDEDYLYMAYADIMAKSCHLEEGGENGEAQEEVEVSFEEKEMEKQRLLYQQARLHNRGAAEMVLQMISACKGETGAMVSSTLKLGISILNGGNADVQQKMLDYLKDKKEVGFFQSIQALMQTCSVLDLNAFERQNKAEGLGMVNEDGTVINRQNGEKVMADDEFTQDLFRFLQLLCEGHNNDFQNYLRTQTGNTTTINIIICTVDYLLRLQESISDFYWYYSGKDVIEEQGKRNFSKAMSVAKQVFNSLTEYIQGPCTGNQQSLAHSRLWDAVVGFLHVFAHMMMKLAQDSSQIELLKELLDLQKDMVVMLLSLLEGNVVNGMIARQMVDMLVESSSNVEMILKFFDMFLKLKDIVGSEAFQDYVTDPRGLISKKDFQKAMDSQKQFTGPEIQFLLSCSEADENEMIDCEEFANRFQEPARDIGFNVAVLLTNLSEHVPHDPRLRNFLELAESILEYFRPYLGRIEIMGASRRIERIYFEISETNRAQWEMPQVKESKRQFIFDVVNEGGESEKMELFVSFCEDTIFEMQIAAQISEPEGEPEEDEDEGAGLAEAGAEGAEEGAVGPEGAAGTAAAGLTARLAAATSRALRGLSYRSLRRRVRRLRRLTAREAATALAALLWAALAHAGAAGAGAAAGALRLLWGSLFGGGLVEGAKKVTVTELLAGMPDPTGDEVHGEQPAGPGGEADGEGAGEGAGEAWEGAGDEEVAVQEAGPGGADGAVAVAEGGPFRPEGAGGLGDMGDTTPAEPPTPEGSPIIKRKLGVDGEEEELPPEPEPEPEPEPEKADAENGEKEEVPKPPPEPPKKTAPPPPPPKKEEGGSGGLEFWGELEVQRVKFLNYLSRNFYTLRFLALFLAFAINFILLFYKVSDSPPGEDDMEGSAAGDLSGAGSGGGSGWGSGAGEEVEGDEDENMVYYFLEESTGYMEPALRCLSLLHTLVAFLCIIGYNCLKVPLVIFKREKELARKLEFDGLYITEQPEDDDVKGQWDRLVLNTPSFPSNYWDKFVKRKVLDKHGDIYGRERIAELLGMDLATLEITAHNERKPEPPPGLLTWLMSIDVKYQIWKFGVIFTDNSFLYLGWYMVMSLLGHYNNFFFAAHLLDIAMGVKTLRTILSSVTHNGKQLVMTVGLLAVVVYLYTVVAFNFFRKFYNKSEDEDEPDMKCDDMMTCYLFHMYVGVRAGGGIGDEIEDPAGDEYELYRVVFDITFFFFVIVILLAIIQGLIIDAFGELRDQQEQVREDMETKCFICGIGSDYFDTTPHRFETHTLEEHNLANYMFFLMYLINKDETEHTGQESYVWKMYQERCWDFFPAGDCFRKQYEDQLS
Experimental: (§1) Crude sarcoplasmic reticulum membrane vesicles were isolated from porcine longissimus dorsi muscle and porcine cardiac left ventricle tissue by differential centrifugation of homogenized tissue, as established previously ([65]). Skeletal heavy SR (HSR) vesicles, which are enriched with RyR1, were isolated by fractionation of crude skeletal SR vesicles using a discontinuous sucrose gradient, in accordance with our published work ([65]). All vesicles were flash-frozen and stored at −80 °C.
(§2) In 96-well plates, skeletal SR membranes (HSR, 1 mg/ml) and cardiac SR membranes (CSR, 3 mg/ml) were preincubated with 1% DMSO or hit compound for 30 min at 22 °C in a solution containing 150 mM KCl, 5 mM GSH, 1 μg/ml Aprotinin/Leupeptin, 1 mM EGTA, and 65 μM or 1.02 mM CaCl2 (as determined by MaxChelator to yield 30 nM or 30 μM of free Ca^2+, respectively), 0.1 mg/ml of BSA, and 20 mM K-PIPES (pH 7.0). Nonspecific [^3H]ryanodine binding to SR was assessed by addition of 40 μM nonradioactively labeled ryanodine. Maximal [^3H]ryanodine binding was assessed by addition of 5 mM adenylyl-imidodiphosphate (AMP-PNP), and in the case of CSR, 20 mM caffeine was added. These control samples were each loaded over four wells per plate. Binding of [^3H]ryanodine (7.5 and 10 nM for CSR and HSR, respectively) was determined following a 3 h incubation at 37 °C and filtration through grade GF/B glass microfiber filters (Brandel Inc) using a Brandel Harvester. In 4 ml of Ecolite scintillation cocktail (MP biomedicals), [^3H]ryanodine retained on the filter was counted using a Beckman LS6000 scintillation counter.

RyR1 [3] = biological target: T2, RyR1 (Rattus norvegicus, UniProt F1LMY4); experiment: t-tubule Ca2+ measurement of RyR1 leak in skinned skeletal muscle fibers; type: cell-based; conditions: 10 μM FA or 1 mM tetracaine, [Ca2+]cyto 200 nM
T2 construct: from tissue; host or cells: Wistar rat extensor digitorum longus (EDL), mechanically skinned single fibres
Experimental: All experimental methods using rodents were approved by the Animal Ethics Committees at The University of Queensland and were performed in accordance with the relevant guidelines and regulations. Five-month-old Wistar rats (UQ Biological Resources) were euthanized by asphyxiation via CO2 exposure, and the extensor digitorum longus (EDL) was rapidly excised. Once dissected, muscles were pinned to Sylgard set in a Petri dish containing paraffin oil.
Bundles of fibers were isolated and exposed to an internal solution containing rhod-5N, as described previously ([47]). After 15 min incubation, single skeletal muscle fibers were mechanically skinned and mounted in a custom-made chamber. […] For tracking Ca^2+ movements across the t-system membrane, images were continuously recorded in xyt mode with an aspect ratio of 256 × 512, with the long aspect of the image parallel with that of the preparation. Temporal resolution of imaging in this mode where the fluorescence signal was within the borders of the fiber was 0.8 s.
T-system rhod-5N fluorescence was converted to [Ca^2+]t-sys as previously described ([47]). To determine the effect of RyR modulators on the RyR Ca^2+ leak, isolated mechanically skinned fibers were continuously imaged as described above, to obtain a record of t-system rhod-5N fluorescence changes over time as the cytoplasmic solution bathing the fiber was changed. […]

RyR2 = biological target: T3, RyR2 (Sus scrofa, UniProt A0A5G2R1W3); experiment: [3H]ryanodine binding to cardiac SR (CSR) vesicles; type: biochemical, pig
T3 construct: from tissue; host or cells: porcine cardiac left ventricle, crude SR vesicles
Experimental: as §1, §2

CC(=O)O[C@H]1C[C@@]2(C)[C@@H](C[C@@H](O)[C@H]3[C@@]4(C)CC[C@@H](O)[C@@H](C)[C@@H]4CC[C@@]32C)/C1=C(\CCC=C(C)C)C(=O)O [FA, (2Z)-2-[(3R,4S,5S,8S,9S,10S,11R,13R,14S,16S)-16-acetyloxy-3,11-dihydroxy-4,8,10,14-tetramethyl-2,3,4,5,6,7,9,11,12,13,15,16-dodecahydro-1H-cyclopenta[a]phenanthren-17-ylidene]-6-methylhept-5-enoic acid]
electrically induced Ca2+ transient amplitude [1]: did not have an effect
EC50 (RyR1 [2]; [Ca2+] 30 nM): 10 nM
EC50 (RyR1 [2]; [Ca2+], 30 µM): 21100 nM
maximum inhibitory effect on [3H]ryanodine binding (RyR1 [2]; skeletal SR, 30 nM Ca2+): ~50%
effect on [3H]ryanodine binding to RyR1 (RyR1 [2]; skeletal SR, 30 μM Ca2+): strongly increased
steady-state [Ca2+]t-sys (RyR1 leak) (RyR1 [3]): decreased
EC50 (RyR2; [Ca2+] 30 nM, Table S4, read-out: EC50, [3H]ryanodine binding, cardiac SR): 1700 nM
effect on [3H]ryanodine binding to RyR2 (RyR2; cardiac SR, 30 μM Ca2+): slight activation at high concentrations
